Results as given in BindingDB's records for doi:10.1016/j.bmc.2006.09.055 (University of Cape Town, 2007).

Molecular target: T1, Falcipain 2 (Plasmodium falciparum, UniProt Q9N6S8)
T1 sequence (Q9N6S8 whole entry): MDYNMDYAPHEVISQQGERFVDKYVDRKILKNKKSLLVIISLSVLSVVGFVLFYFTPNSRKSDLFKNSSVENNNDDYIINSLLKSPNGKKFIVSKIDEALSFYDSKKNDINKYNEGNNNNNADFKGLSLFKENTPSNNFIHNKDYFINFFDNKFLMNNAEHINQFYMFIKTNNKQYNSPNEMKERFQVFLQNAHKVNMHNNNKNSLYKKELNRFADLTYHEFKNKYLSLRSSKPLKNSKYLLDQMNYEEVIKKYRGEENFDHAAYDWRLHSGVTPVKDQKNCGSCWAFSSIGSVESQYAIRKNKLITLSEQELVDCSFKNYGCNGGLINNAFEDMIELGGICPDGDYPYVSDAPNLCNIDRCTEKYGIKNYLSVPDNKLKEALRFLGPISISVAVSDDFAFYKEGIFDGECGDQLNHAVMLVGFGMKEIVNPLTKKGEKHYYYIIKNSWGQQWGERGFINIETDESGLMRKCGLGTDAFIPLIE
Test: Falcipain-2 Inhibition Assay
Details: pH 5.5; 22 °C
Description: IC50 values against the recombinant falcipain-2 were determined by incubating protein with different concentrations of inhibitors in reaction buffer after addition of the substrate. Fluorescence was continuously monitored for 30 min at room temperature in a Labsystems Fluoroscan Ascent spectrofluorometer. IC50 values were determined from plots of activity over inhibitor concentration with GraphPad Prism software.

IC50: > 20 µM
Structure (SMILES): NC(=S)NN=Cc1ccc(O)cc1O [2,4-dihydroxybenzaldehyde thiosemicarbazone]
